The source of these data is patent publication US20210137897A1, “TOPICAL mTOR INHIBITORS FOR CUTANEOUS PROLIFERATIVE AND VASCULAR CONDITIONS” (GEORGETOWN UNIVERSITY, priority 2019, published 2021).

The subject of series [1] is Langerhans cell histiocytosis, multisystem disease. Conditions: in combination with a single dose of methylprednisolone; cited from earlier work.
Another series relates to keloids. Briefly: Case report: 1% topical rapamycin on keloidal, contracted burn scar. The series is classed as in vivo, human. As to conditions: 1% topical rapamycin one to two times a day on thigh scar. An excerpt:
As an adjuvant treatment, they treated their worst keloidal, contracted scar on their thigh with 1% topical rapamycin one to two times a day.

In series [2] the test system is capillary malformation-arteriovenous malformation (CM-AVM) syndrome. Briefly: Case report: topical 1% rapamycin cream in CM-AVM syndrome. The class given is in vivo, human. Conditions: topical 1% rapamycin cream twice a day to the face. An excerpt:
A person presented with several well demarcated pink to slightly tan patches with perilesional halos/rims of pallor scattered on their body, including one on their face. Many of those birthmarks were present since birth or at least since a very young age. The patient's parent also had similar-appearing birthmarks. The patient was otherwise well. Genetic testing confirmed a pathogenic variant identified in RASA1 gene consistent with capillary malformation-arteriovenous malformation (CM-AVM) syndrome. Per the patient and their parent's interest in a topical treatment, off-label use of topical 1% rapamycin cream was used twice a day to the lesion on the face.

For series [3] the following is noted: cited from earlier work.
Series [4] concerns venolymphatic malformation. Nature of the series: Case report: topical 1% sirolimus cream in venolymphatic malformation. The class given is in vivo, human. An excerpt:
A person presented with a birthmark on the left thigh, present since birth. […] Clinically, it appeared most consistent with a mixed venolymphatic malformation, possibly with a small capillary component to it. Over the last few years, it began scabbing and occasionally bleeding at the surface. The deeper areas sometimes caused a throbbing pain. A decision was made to start treatment with topical 1% sirolimus cream twice a day. After 1.5 to 2 months treatment, the birthmark started to improve. Before starting topical sirolimus, they had painful episodes (6/10 severity) 2-3× per week that lasted 15-20 minutes. […] Additionally, overall the lesion was much flatter since starting the topical sirolimus. Their quality of life improved now that they were is in much less pain.
Previous reports have shown effectiveness of oral sirolimus in the treatment of venolymphatic malformations; however, to the best of inventor's knowledge, topical treatment has never been reported. This patient's venolymphatic malformation improved both symptomatically and improved in appearance with topical 1% rapamycin treatment. […] Additionally, inventor expects that all superficial or cutaneous vascular malformations and cutaenous vascular conditions would respond to treatment with topical mTOR inhibitor.

Series [5] deals with confluent and reticulated papillomatosis (CARP). Nature of the series: Case report: topical 1% rapamycin cream in confluent and reticulated papillomatosis. As to conditions: 1% rapamycin cream twice a day for 3 months. The series is classed as in vivo, human. The source says: FIG. 1A is a photographic image of the chest of a patient afflicted with confluent and reticulated papillomatosis (CARP) before starting 3 months' treatment with topically applied 1% rapamycin (sirolimus).
FIG. 1B is a photographic image of the chest of the patient in FIG. 1A following 3 months' treatment with topically applied 1% rapamycin (sirolimus).
A person was initially diagnosed with CARP in October 2015 when they presented with numerous hyperpigmented, slightly velvety macules with a fine overlying scale coalescing into reticulated and confluent patches on their chest, neck, and upper back. […] They then embarked upon a course of topical 1% rapamycin cream applied to affected areas twice a day for 3 months. […] Pre- and post treatment photographs are presented as FIGS. 1A and 1B, respectively.

A short description of series [6]: Sirolimus blood levels during topical treatment of the non-LCH patient. The class given is in vivo, human. As to conditions: at 1 month; topical rapamycin (1%) ointment to left face. The source says: Topical rapamycin (1%) compounded in ointment was initiated to the left face with the right face serving as a control. Sirolimus blood levels were negative at 1 month.

For `COc1cc([C@@H]2c3cc4c(cc3[C@@H](O[C@@H]3O[C@@H]5CO[C@@H](C)O[C@H]5[C@H](O)[C@H]3O)[C@H]3COC(=O)[C@H]23)OCO4)cc(OC)c1O` [etoposide], in series [1], the disease response is reported as 65%, the reactivation was 55%, the survival is listed as 83% and the toxicity is 58%.
On to `CO[C@H]1C[C@@H]2CC[C@@H](C)[C@@](O)(O2)C(=O)C(=O)N2CCCC[C@H]2C(=O)O[C@H]([C@H](C)C[C@@H]2CC[C@@H](O)[C@H](OC)C2)CC(=O)[C@H](C)/C=C(\C)[C@@H](O)[C@@H](OC)C(=O)[C@H](C)C[C@H](C)/C=C/C=C/C=C/1C` [sirolimus, Sirolimus], for which the tolerability result with keloids was “tolerated the treatment well without any known side effects”; in series [2], “tolerated well without side effects”. Further, the water solubility result in series [3] is given as “poorly water soluble”. Besides, the “duration of pain episode” value in series [4] (after 1-2 months of topical 1% sirolimus, before treatment 15-20 minutes) is on record as “about 10 minutes”. Besides, the “treatment time until the birthmark started to improve” value in series [4] (person, topical 1% sirolimus cream twice a day) is reported as 1.5 to 2 months. Further, in series [5], the “local tolerability at the site of application” value is listed as “denied having any itching, burning, or pain”. Also, the Sirolimus blood levels entry in series [6] was “negative”.
In the case of `CC[C@]1(O)C[C@@H]2CN(CCc3c([nH]c4ccccc34)[C@@](C(=O)OC)(c3cc4c(cc3OC)N(C)[C@H]3[C@@](O)(C(=O)OC)[C@H](OC(C)=O)[C@]5(CC)C=CCN6CC[C@]43[C@@H]65)C2)C1` [vinblastine], in series [1], the disease response is reported as 58%, the reactivation is 61%, the survival was 76% and the toxicity is 47%.
